# According to publication PMC9822352, “Design, Synthesis and Evaluation of New Multifunctional Benzothiazoles as Photoprotective, Antioxidant and Antiproliferative Agents” (Molecules, 2022):
# Where “and” joins values, the source holds several entries; their conditions need not be identical. Equal entries are not always repeated.
# Experiments:
# [1] = test system: HaCat cell line; assay: Pro-apoptotic activity (Annexin V method), HaCat; type: cell-based, human; settings: 24 h
# Experimental: (§1) The Annexin V assay was conducted at two concentrations approaching IC50 values toward the selected cell lines reported in Table 3. The complete set of data is reported in Table 4, while representative data from the analysis of the corresponding Muse Analyzer plots are shown in Figure 2.
# (§2) Apoptosis assays were performed with a Muse® Cell Analyzer instrument (Merck Millipore, Burlington, MA, USA) and the kit on Colo-38 and HaCat cell lines according to the manufacturer’s protocol. Cells were treated and exposed to the compounds for 24 h. This procedure is based on the detection of PS (PhosphatidylSerine) exposed on the external membrane of apoptotic cells by Annexin V. Four populations of cells can be distinguished using this assay: live, early apoptotic, late apoptotic and dead cells. The MUSE cell analyzer can discriminate “early” from “late” apoptosis since “early apoptotic cells” are Annexin V-positive and 7-AAD-negative, while “late apoptotic cells” are positive to both Annexin V and 7-AAD (7-aminoactinomycin D). The DNA intercalating molecule 7AAD (7-aminoactinomycin D) is used as an indicator of cell membrane integrity, since it binds DNA only in cells undergoing late apoptosis/death stage, when the membrane integrity is lost. Muse Annexin V and Dead Cell reagent were used to dilute the cells (1:1). After 20 min of incubation between cell samples and the kit at room temperature in the dark, the samples were analyzed using 0.01% Triton X-100 as positive control. The data were acquired and recorded using the Annexin V and Dead Cell software module (Millipore, Billerica, MA, USA).
# [2] = FRAP (Ferric Reducing Antioxidant Power) assay; settings: Trolox standard, 37 °C 10 min, 593 nm; mean ± SEM
# From the text: The FRAP (Ferric Reducing Antioxidant Power) test allows the measurement of the ability of antioxidants to reduce ferric ion to ferrous. This method represents one of the simplest, quickest and least expensive methods for the determination of reducing properties on oxidized species in vitro.
# The FRAP test (Ferric Reducing Antioxidant Power) is based on a colorimetric reaction and evaluates the ability of a sample of reducing ferric ions to ferrous ion while complexed with TPTZ (2,4,6-trispyridil-s-triazine). The FRAP solution was prepared from 0.1 M acetate buffer (pH 3.6), 10 mmol/L of TPTZ in 40 mM HCl, and 20 mM solution of FeCl3, with a 10:1:1 ratio, as described. Then, 1.9 mL of this solution was incubated with 0.1 mL of the sample solution at 37 °C for 10 min. The absorbance was read with a UV-Vis spectrophotometer at a 593 nm wavelength, relative to the maximum peak of absorbance of Fe^2+-TPTZ complex. Trolox® was used as a standard and the results are expressed as µmolTE/g.
# [3] = DPPH radical scavenging test; settings: mean ± SEM; for DPPH (% Inhibition): compound at 1 mg/mL, 30 min, 517 nm
# Experimental: The DPPH assay is widely used, and the simplest and fastest in vitro method for evaluating the antioxidant power of extracts or isolated compounds; it is based on the depletion of the 2,2-diphenyl-1-picrylhydrazyl radical (DPPH˙) by an antioxidant molecule with scavenger activity. This is an extremely sensitive test that can detect the activity of active ingredients present in very low concentrations.
# The procedure used was adapted from Wang et al.. Briefly, 0.750 mL of a methanolic solution of each tested compound was treated with 1.5 mL of DPPH solution (0.004%) in MeOH. Samples were stored in the dark at room temperature for 30 min, and the absorbance value was read with a spectrophotometer at 517 nm, which is the maximum peak of absorbance relative to the DPPH radical absorption spectra. The values obtained were fitted into Equation (1) and converted to inhibition percentage (%) of the radical:DPPH inhibition percentage (%) = 100 × [1 − A1/A0](1) where A1 and A0 were, respectively, the absorbance recorded with and without the sample, which are directly proportional to DPPH residual concentration in the sample and DPPH concentration in the control (0.750 of MeOH and 1.5 mL of DPPH solution). […] A linear regression was performed to calculate the sample concentration able to eliminate 50% of DPPH free radicals.
# [4] = test system: Colo-38 cell line; assay: Pro-apoptotic activity (Annexin V method), Colo-38; type: cell-based, human; settings: for Dead (%) / Early Apoptosis (%) / Late Apoptosis (%): 24 h; for total apoptosis: Colo-38, 24 h, concentrations approaching IC50
# Experimental: as §1, §2
# [5] = test system: HaCat keratinocytes; assay: Cell growth inhibition assay, HaCat; type: cell-based, human; settings: Homo sapiens, HaCaT; 24 h incubation, cell count
# Experimental: All synthesized compounds were tested in order to evaluate their in vitro antiproliferative activity. The human melanoma Colo-38 cell line was selected as a tumor skin model, while the immortalized human HaCaT keratinocytes were chosen as a control for the evaluation of the cytotoxicity towards non-cancerous cells and of the selectivity towards tumor cell lines. […] The selectivity index (SI) was also calculated and is the ratio between the IC50 of a given compound towards the non-cancerous cell line and the IC50 of the same compound towards the tumor cell line.
# Cell growth inhibition assays were carried out using human melanoma Colo-38 cells and skin HaCat keratinocytes cells. Human melanoma Colo-38 cells were kindly provided by Dr. Patrizio Giacomini (Laboratory of Immunology, Regina Elena Institute, Rome, Italy). HaCat cells were kindly provided by Istituto Zooprofilattico Sperimentale della Lombardia e dell’Emilia Romagna, Brescia, Italy. Cell lines were seeded using concentrations of 40,000 cells/mL and 25,000 cells/mL, respectively. Colo-38 cells were maintained in RPMI 1640, supplemented with 10% fetal bovine serum (FBS), penicillin (100 Units mL^−1), and streptomycin (100 µg mL^−1). HaCat cells were maintained in DMEM, supplemented with 10% fetal bovine serum (FBS), penicillin (100 Units mL^−1), streptomycin (100 µg mL^−1) and glutamine (2 mM); the incubation was performed at 37 °C in a 5% CO2 atmosphere. Tested compounds were dissolved in MeOH/DMSO (1:1) to obtain 50 mM stock solutions and diluted before cell treatment in MeOH 100%. The tested compounds were added at serial dilutions to the cell cultures (from 0.1 to 100 µM) and incubated for 24 h further. Cells were then harvested, suspended in physiological solution, and counted with a Z2 Coulter Counter (Coulter Electronics, Hialeah, FL, USA). The cell number/mL and the IC50 values were determined when untreated cells were in the log phase of cell growth. Cells treated with vehicles and untreated cells were placed in each plate.
Structure (SMILES),FRAP [2],DPPH (% Inhibition) [3] [%],"Dead (%) ([4]; Colo-38, 5 µM)","Early Apoptosis (%) ([4]; Colo-38, 5 µM)","Late Apoptosis (%) ([4]; Colo-38, 5 µM)","Dead (%) ([4]; Colo-38, 10 µM)","Early Apoptosis (%) ([4]; Colo-38, 10 µM)","Late Apoptosis (%) ([4]; Colo-38, 10 µM)",total apoptosis [4],IC50 [5] [µM],"Dead (%) ([4]; Colo-38, 50 µM)","Early Apoptosis (%) ([4]; Colo-38, 50 µM)",other results
"O=C(/C=C/c1ccc(O)c(O)c1)Nc1nc2ccccc2s1 [BZTcin4, (E)-N-(benzo[d]thiazol-2-yl)-3-(3,4-dihydroxyphenyl)acrylamide]",4583.10 µmolTE/g and 4583.10 ± 22.68 µmolTE/g,>90.00,1.00,3.85,8.50,1.35,3.20,8.00,does not induce apoptosis at any of the concentrations tested,38.1 ± 5.13,–,–,Dead (%) ([1]; 5 µM): 0.41%; Early Apoptosis (%) ([1]; 5 µM): 1.83%; Late Apoptosis (%) ([1]; 5 µM): 3.05%; Dead (%) ([1]; 10 µM): 1.96%; Early Apoptosis (%) ([1]; 10 µM): 1.13%; Late Apoptosis (%) ([1]; 10 µM): 15.56%; DPPH IC50 [3]: 4.86 ± 0.38 µg/mL
"O=C(/C=C/c1ccc(O)cc1)Nc1nc2ccccc2s1 [BZTcin2, (E)-N-(benzo[d]thiazol-2-yl)-3-(4-hydroxyphenyl)acrylamide]",43.73 ± 2.83 µmolTE/g,12.37 ± 0.00,2.05,1.70,16.90,–,–,–,over 30%,> 100,4.45,1.85,–
"COc1ccc(/C=C/C(=O)Nc2nc3ccccc3s2)cc1O [BZTcin5, (E)-N-(benzo[d]thiazol-2-yl)-3-(3-hydroxy-4-methoxyphenyl)acrylamide]",2043.33 ± 12.03 µmolTE/g,40.15 ± 0.18,–,–,–,3.75,1.80,21.40,> 20%,83.3 ± 5.79,3.50,1.40,"Dead (%) ([1]; 50 µM): 0.19%; Early Apoptosis (%) ([1]; 50 µM): 2.29%; Late Apoptosis (%) ([1]; 50 µM): 3.73%; Dead (%) ([1]; 100 µM): 0.20%; Early Apoptosis (%) ([1]; 100 µM): 1.84%; Late Apoptosis (%) ([1]; 100 µM): 5.00%; Late Apoptosis (%) ([4]; Colo-38, 50 µM): 16.25%"
"O=C(N/N=C/c1ccc(O)cc1)c1nc2ccccc2s1 [BZTidr2, (E)-N′-(4-hydroxybenzylidene)benzo[d]thiazole-2-carbohydrazide]",1160.24 ± 17.34 µmolTE/g,54.80 ± 1.63,–,–,–,–,–,–,–,> 100,–,–,–
